The term IC50 denotes the concentration needed to halve the response being measured. The term inhibition denotes how much of the control response was suppressed. High values mean a strong effect, low ones a weak effect.

In test [1] the target is T1, Dihydrofolate reductase (Rattus norvegicus, UniProt Q920D2).
T1 sequence (Q920D2 whole entry): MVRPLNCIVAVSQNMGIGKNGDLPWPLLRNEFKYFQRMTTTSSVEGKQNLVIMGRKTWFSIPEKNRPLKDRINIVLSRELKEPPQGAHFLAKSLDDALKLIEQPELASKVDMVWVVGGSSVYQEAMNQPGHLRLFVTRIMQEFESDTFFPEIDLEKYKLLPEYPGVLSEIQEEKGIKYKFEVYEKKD
In words: Inhibitory concentration against Dihydrofolate reductase from rat liver.

In test [2] the target is T2, Bifunctional dihydrofolate reductase-thymidylate synthase (Toxoplasma gondii, UniProt Q07422).
T2 sequence (Q07422 whole entry): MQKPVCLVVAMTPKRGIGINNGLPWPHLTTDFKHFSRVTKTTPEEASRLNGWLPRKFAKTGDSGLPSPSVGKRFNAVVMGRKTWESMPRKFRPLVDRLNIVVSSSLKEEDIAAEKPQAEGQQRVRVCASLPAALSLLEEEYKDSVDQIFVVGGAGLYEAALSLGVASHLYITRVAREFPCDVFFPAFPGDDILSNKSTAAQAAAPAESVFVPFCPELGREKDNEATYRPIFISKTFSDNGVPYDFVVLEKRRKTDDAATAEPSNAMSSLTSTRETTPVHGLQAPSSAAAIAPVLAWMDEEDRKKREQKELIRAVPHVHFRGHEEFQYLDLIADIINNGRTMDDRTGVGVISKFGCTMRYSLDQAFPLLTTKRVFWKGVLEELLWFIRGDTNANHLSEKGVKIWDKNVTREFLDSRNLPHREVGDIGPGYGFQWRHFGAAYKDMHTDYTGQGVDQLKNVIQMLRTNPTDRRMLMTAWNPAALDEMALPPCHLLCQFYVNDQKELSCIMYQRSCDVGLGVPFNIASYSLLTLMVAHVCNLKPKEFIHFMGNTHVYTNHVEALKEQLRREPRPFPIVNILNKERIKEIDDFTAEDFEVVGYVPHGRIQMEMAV
In words: Inhibitory concentration against Dihydrofolate reductase from Toxoplasma gondii (Toxoplasma gondii).

Test [3] concerns the target T3, Dihydrofolate reductase (Mycobacterium avium, UniProt O30463).
T3 sequence (O30463 whole entry): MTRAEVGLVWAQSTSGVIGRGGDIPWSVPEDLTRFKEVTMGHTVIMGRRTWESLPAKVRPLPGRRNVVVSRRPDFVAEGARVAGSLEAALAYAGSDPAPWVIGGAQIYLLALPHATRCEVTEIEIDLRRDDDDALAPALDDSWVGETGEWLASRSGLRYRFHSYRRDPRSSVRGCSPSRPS
In words: Inhibitory concentration against Dihydrofolate reductase from Mycobacterium avium (Mycobacterium avium).

Test [4] deals with T4, Dihydrofolate reductase (Pneumocystis carinii, UniProt P16184).
T4 sequence (P16184 whole entry): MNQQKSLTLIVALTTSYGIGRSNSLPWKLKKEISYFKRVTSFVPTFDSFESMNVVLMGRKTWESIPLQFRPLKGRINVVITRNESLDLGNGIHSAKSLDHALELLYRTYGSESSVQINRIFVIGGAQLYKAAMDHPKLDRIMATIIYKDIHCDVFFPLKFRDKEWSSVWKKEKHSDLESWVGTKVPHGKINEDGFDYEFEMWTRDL
Nature of the test: Inhibition of Dihydrofolate reductase from Pneumocystis carinii (Pneumocystis carinii).

The nature of test [5]: Selectivity ratio (IC50 rlDHFR)/(IC50 maDHFR).
Test [6] concerns the target T5, Dihydrofolate reductase (Pneumocystis carinii) (UniProt P16184).
T5 sequence (whole entry): T4 sequence (P16184 whole entry)
In words: Inhibition against Dihydrofolate reductase from Pneumocystis carinii (Pneumocystis carinii) at 12 uM of compound.

Test [7] in a line: Selectivity ratio (IC50rlDHFR)/(IC50 tgDHFR).
Test [8] can be described thus: Selectivity ratio [(IC50 rlDHFR)/(IC50 pcDHFR).

For the compound `COc1ccc(OC)c(Sc2[nH]c3nc(N)nc(N)c3c2C)c1`, the IC50 worked out at 7.8 µM against Dihydrofolate reductase [1] and 0.17 µM in test [2].

`COc1cc(CC2CN=C(N)N=C2N)cc(OC)c1OC` (centres undefined) gave an IC50 against Dihydrofolate reductase [3] of 0.3 µM.

Regarding `COc1cccc(Sc2[nH]c3nc(N)nc(N)c3c2C)c1`, the IC50 stood at 2.06 µM against Dihydrofolate reductase [1], 1.37 µM on Dihydrofolate reductase [3] and 60.2 µM against Dihydrofolate reductase [4].

On to `Cc1c(Sc2ccc(Cl)cc2)[nH]c2nc(N)nc(N)c12`, for which the IC50 on Dihydrofolate reductase [1] amounted to 19 µM; on Dihydrofolate reductase [3] it was 4 µM; against Dihydrofolate reductase [4] it was 16.7 µM.

Turning to `Cc1c(Sc2cccc(Cl)c2)[nH]c2nc(N)nc(N)c12`, the IC50 on Dihydrofolate reductase [1] worked out at 47.7 µM; against Dihydrofolate reductase [3], 4.4 µM.

Turning to `COc1ccccc1Sc1[nH]c2nc(N)nc(N)c2c1C`, the IC50 was 2.32 µM against Dihydrofolate reductase [1], 0.3 µM against Dihydrofolate reductase [3] and 22 µM on Dihydrofolate reductase [4].

With `COc1ccc(Sc2[nH]c3nc(N)nc(N)c3c2C)cc1`, the figures for the IC50 against Dihydrofolate reductase [1], against Dihydrofolate reductase [3] and on Dihydrofolate reductase [4] were 31.3 µM, 0.6 µM and 112 µM, respectively.

Turning to `Cc1c(Sc2ccc(Cl)cc2Cl)[nH]c2nc(N)nc(N)c12`, the 50% inhibitory concentration (IC50) is 110 µM against Dihydrofolate reductase [1], 19 µM against Dihydrofolate reductase [3], above 12 µM at Dihydrofolate reductase [4] and 20 µM in test [2]. Moreover, the Selectivity ratio came out at 5.79 in test [5] and 5.5 in test [7]. For the same compound, the inhibition in test [6] amounted to 14%.

For the compound `Cc1c(Sc2cccc3ccccc23)[nH]c2nc(N)nc(N)c12`, the Selectivity ratio was determined as 6.92 in test [5], 27.9 in test [7] and 0.12 in test [8]. The IC50 on Dihydrofolate reductase [3] worked out at 0.7 µM; in test [2], 0.16 µM.

The values are drawn from ChEMBL document CHEMBL1148359, “Design, synthesis, and biological evaluation of 2,4-diamino-5-methyl-6-substituted-pyrrolo[2,3-d]pyrimidines as dihydrofolate reductase inhibitors” (J Med Chem, 2004).
